# From article PMC4490784, “Compensatory induction of MYC expression by sustained CDK9 inhibition via a BRD4-dependent mechanism” (eLife, 2015)
# Experiments:
# Test in all cases: KINOMEscan binding assay
# MET = biological target: T1, MET (Homo sapiens, UniProt P08581)
# T1 construct: purchased DiscoveRx KINOMEscan
# In short: (§1)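 Active site-directed competition binding measured kinase engagement within a panel of over 400 kinases. i-CDK9 was tested at two concentrations, 1 and 10 µM.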
# FGFR4 = biological target: T2, FGFR4 (Homo sapiens, UniProt P22455); settings: read-out: % Retention on Solid Support
# T2 construct: purchased DiscoveRx KINOMEscan
# In short: as §1
# [1] = biological target: T3, ABL1(F317I)-phosphorylated (Homo sapiens, UniProt P00519, F317I); settings: 1 µM i-CDK9; read-out: % Retention on Solid Support
# T3 construct: purchased DiscoveRx KINOMEscan
# In short: as §1
# BRSK2 = biological target: T4, BRSK2 (Homo sapiens, UniProt Q8IWQ3); settings: read-out: % Retention on Solid Support
# T4 construct: purchased DiscoveRx KINOMEscan
# In short: as §1
# RIOK1 = biological target: T5, RIOK1 (Homo sapiens, UniProt Q9BRS2); settings: read-out: % Retention on Solid Support
# T5 construct: purchased DiscoveRx KINOMEscan
# In short: as §1
# PRKD3 = biological target: T6, PRKD3 (Homo sapiens, UniProt O94806); settings: read-out: % Retention on Solid Support
# T6 construct: purchased DiscoveRx KINOMEscan
# In short: as §1
# ABL2 = biological target: T7, ABL2 (Homo sapiens, UniProt P42684); settings: read-out: % Retention on Solid Support
# T7 construct: purchased DiscoveRx KINOMEscan
# In short: as §1
# BRAF = biological target: T8, BRAF (Homo sapiens, UniProt P15056); settings: read-out: % Retention on Solid Support
# T8 construct: purchased DiscoveRx KINOMEscan
# In short: as §1
# INSR = biological target: T9, INSR (Homo sapiens, UniProt P06213); settings: read-out: % Retention on Solid Support
# T9 construct: purchased DiscoveRx KINOMEscan
# In short: as §1
# LATS2 = biological target: T10, LATS2 (Homo sapiens, UniProt Q9NRM7)
# T10 construct: purchased DiscoveRx KINOMEscan
# In short: as §1
# TLK2 = biological target: T11, TLK2 (Homo sapiens, UniProt Q86UE8); settings: read-out: % Retention on Solid Support
# T11 construct: purchased DiscoveRx KINOMEscan
# In short: as §1
# IKK-beta = biological target: T12, IKK-beta (Homo sapiens, UniProt O14920); settings: read-out: % Retention on Solid Support
# T12 construct: purchased DiscoveRx KINOMEscan
# In short: as §1
# [2] = biological target: RPS6KA5(Kin.Dom.2-C-terminal) (Homo sapiens, UniProt O75582); settings: read-out: % Retention on Solid Support
# In short: as §1
# ADCK3 = biological target: T13, ADCK3 (Homo sapiens, UniProt Q8NI60); settings: read-out: % Retention on Solid Support
# T13 construct: purchased DiscoveRx KINOMEscan
# In short: as §1
# MST2 = biological target: T14, MST2 (Homo sapiens, UniProt Q13188); settings: read-out: % Retention on Solid Support
# T14 construct: purchased DiscoveRx KINOMEscan
# In short: as §1
# TSSK1B = biological target: T15, TSSK1B (Homo sapiens, UniProt Q9BXA7); settings: read-out: % Retention on Solid Support
# T15 construct: purchased DiscoveRx KINOMEscan
# In short: as §1
# KIT(A829P) = biological target: T16, KIT(A829P) (Homo sapiens, UniProt P10721, A829P); settings: 1 µM i-CDK9; read-out: % Retention on Solid Support
# T16 construct: purchased DiscoveRx KINOMEscan
# In short: as §1
# CDC2L2 = biological target: T17, CDC2L2 (Homo sapiens, UniProt Q9UQ88); settings: read-out: % Retention on Solid Support
# T17 construct: purchased DiscoveRx KINOMEscan
# In short: as §1
# CDK13 = biological target: T18, CDK13 (Homo sapiens, UniProt Q14004); settings: 1 µM i-CDK9
# T18 construct: purchased DiscoveRx
# In short: as §1
# PAK4 = biological target: T19, PAK4 (Homo sapiens, UniProt O96013); settings: read-out: % Retention on Solid Support
# T19 construct: purchased DiscoveRx KINOMEscan
# In short: as §1
# CLK3 = biological target: T20, CLK3 (Homo sapiens, UniProt P49761); settings: read-out: % Retention on Solid Support
# T20 construct: purchased DiscoveRx KINOMEscan
# In short: as §1
# CDK5 = biological target: T21, CDK5 (Homo sapiens, UniProt Q00535); settings: read-out: % Retention on Solid Support
# T21 construct: purchased DiscoveRx KINOMEscan
# In short: as §1
# AURKC = biological target: T22, AURKC (Homo sapiens, UniProt Q9UQB9); settings: read-out: % Retention on Solid Support
# T22 construct: purchased DiscoveRx KINOMEscan
# In short: as §1
# NEK7 = biological target: T23, NEK7 (Homo sapiens, UniProt Q8TDX7); settings: read-out: % Retention on Solid Support
# T23 construct: purchased DiscoveRx KINOMEscan
# In short: as §1
# CDKL2 = biological target: T24, CDKL2 (Homo sapiens, UniProt Q92772); settings: read-out: % Retention on Solid Support
# T24 construct: purchased DiscoveRx KINOMEscan
# In short: as §1
# [3] = biological target: T25, TYK2(JH2domain-pseudokinase) (Homo sapiens, UniProt P29597)
# T25 construct: TYK2(JH2domain-pseudokinase); purchased DiscoveRx KINOMEscan
# In short: as §1
# PIK3CA(E545K) = biological target: T26, PIK3CA(E545K) (Homo sapiens, UniProt P42336, E545K); settings: read-out: % Retention on Solid Support
# T26 construct: purchased DiscoveRx KINOMEscan
# In short: as §1
# PHKG1 = biological target: T27, PHKG1 (Homo sapiens, UniProt Q16816); settings: read-out: % Retention on Solid Support
# T27 construct: purchased DiscoveRx KINOMEscan
# In short: as §1
# CAMK2G = biological target: T28, CAMK2G (Homo sapiens, UniProt Q13555); settings: read-out: % Retention on Solid Support
# T28 construct: purchased DiscoveRx KINOMEscan
# In short: as §1
# TTK = biological target: T29, TTK (Homo sapiens, UniProt P33981); settings: read-out: % Retention on Solid Support
# T29 construct: purchased DiscoveRx KINOMEscan
# In short: as §1
# RPS6KA5(Kin.Dom.2-C-terminal), sequence (O75582 388-802 limits assumed): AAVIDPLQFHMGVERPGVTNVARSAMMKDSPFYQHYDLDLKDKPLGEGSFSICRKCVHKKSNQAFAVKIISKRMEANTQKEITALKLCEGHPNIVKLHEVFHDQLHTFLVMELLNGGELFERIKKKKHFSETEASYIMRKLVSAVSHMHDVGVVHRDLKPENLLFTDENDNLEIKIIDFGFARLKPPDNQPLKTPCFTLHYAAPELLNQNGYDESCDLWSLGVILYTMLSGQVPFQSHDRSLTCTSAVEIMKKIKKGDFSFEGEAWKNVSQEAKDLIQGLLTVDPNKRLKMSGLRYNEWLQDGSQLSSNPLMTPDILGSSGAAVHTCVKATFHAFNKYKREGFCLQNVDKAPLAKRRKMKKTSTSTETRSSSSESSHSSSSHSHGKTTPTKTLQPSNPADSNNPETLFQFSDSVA
# T9 sequence (P06213 28-1382): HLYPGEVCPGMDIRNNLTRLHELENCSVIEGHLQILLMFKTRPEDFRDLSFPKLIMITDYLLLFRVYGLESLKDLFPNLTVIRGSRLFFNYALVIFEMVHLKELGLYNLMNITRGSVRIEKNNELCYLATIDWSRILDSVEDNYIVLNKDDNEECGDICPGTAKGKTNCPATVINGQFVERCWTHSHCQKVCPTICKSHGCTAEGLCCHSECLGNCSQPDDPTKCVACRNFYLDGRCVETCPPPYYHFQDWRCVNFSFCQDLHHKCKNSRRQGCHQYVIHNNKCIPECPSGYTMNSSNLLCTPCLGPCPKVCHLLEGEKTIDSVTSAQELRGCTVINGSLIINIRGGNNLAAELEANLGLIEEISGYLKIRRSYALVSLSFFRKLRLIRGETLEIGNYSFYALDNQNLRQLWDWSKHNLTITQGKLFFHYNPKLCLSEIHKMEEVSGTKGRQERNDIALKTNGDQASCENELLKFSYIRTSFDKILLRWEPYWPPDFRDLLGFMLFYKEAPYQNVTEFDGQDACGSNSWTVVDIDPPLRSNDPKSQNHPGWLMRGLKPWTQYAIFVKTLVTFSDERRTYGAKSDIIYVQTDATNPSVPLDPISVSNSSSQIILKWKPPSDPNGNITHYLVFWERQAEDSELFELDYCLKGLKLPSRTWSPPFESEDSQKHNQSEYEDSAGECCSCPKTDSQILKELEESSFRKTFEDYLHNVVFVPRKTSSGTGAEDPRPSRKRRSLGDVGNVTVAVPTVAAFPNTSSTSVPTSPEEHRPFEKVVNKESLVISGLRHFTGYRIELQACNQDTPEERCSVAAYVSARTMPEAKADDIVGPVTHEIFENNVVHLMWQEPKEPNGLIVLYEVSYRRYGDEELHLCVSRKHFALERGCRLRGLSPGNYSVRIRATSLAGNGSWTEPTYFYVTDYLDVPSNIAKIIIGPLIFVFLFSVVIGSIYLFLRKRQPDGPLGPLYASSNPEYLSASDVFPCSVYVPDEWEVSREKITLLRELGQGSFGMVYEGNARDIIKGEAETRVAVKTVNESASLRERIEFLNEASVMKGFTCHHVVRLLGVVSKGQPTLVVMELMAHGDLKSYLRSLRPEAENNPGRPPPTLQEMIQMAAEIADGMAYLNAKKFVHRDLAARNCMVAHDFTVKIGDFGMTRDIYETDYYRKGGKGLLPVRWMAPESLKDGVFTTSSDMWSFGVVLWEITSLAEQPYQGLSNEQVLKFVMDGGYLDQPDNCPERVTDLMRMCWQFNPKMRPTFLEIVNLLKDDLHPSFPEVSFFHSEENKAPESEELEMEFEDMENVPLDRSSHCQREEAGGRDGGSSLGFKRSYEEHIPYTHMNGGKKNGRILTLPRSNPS
# T7 sequence (P42684 whole entry): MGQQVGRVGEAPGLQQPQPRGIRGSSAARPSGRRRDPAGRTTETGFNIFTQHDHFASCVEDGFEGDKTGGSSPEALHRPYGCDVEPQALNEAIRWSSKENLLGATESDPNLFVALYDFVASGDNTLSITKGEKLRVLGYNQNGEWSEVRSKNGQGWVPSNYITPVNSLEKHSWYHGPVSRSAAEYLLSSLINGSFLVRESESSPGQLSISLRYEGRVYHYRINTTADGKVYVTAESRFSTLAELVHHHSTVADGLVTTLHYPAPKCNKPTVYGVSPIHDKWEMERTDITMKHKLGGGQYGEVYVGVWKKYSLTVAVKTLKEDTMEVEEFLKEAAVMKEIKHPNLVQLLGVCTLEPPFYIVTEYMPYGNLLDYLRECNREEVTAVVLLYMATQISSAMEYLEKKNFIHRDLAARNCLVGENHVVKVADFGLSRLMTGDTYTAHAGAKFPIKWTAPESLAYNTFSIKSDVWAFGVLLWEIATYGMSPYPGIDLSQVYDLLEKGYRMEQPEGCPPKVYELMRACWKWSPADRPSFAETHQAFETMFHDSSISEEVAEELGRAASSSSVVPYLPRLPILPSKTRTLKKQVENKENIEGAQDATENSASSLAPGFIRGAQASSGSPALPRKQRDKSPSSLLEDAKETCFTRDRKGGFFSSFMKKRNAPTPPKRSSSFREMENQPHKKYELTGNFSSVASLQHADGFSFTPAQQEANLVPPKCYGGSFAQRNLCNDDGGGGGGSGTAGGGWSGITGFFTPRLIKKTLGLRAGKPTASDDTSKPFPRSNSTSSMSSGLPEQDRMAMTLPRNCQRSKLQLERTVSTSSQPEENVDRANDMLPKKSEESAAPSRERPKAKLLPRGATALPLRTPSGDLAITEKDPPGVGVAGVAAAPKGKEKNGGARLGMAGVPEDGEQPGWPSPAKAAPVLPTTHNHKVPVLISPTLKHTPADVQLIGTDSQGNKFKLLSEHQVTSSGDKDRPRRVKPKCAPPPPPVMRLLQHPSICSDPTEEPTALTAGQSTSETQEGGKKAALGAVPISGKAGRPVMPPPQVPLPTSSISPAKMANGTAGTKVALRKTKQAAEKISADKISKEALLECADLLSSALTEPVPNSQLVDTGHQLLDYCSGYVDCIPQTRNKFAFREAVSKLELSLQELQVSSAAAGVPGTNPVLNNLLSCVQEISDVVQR
# T13 sequence (Q8NI60 163-647): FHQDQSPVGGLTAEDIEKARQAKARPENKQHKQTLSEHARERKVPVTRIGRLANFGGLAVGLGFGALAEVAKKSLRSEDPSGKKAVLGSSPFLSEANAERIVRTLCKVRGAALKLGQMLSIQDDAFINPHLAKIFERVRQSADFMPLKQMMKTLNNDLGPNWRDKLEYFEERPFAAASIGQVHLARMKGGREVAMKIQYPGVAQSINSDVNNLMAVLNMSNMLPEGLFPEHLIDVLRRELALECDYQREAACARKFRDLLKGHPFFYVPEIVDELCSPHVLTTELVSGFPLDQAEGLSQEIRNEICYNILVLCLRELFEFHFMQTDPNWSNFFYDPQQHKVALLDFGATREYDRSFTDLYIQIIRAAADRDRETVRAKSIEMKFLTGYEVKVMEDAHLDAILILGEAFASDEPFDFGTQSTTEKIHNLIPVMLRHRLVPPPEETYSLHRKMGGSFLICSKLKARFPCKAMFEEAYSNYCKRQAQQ
# T10 sequence (Q9NRM7 whole entry): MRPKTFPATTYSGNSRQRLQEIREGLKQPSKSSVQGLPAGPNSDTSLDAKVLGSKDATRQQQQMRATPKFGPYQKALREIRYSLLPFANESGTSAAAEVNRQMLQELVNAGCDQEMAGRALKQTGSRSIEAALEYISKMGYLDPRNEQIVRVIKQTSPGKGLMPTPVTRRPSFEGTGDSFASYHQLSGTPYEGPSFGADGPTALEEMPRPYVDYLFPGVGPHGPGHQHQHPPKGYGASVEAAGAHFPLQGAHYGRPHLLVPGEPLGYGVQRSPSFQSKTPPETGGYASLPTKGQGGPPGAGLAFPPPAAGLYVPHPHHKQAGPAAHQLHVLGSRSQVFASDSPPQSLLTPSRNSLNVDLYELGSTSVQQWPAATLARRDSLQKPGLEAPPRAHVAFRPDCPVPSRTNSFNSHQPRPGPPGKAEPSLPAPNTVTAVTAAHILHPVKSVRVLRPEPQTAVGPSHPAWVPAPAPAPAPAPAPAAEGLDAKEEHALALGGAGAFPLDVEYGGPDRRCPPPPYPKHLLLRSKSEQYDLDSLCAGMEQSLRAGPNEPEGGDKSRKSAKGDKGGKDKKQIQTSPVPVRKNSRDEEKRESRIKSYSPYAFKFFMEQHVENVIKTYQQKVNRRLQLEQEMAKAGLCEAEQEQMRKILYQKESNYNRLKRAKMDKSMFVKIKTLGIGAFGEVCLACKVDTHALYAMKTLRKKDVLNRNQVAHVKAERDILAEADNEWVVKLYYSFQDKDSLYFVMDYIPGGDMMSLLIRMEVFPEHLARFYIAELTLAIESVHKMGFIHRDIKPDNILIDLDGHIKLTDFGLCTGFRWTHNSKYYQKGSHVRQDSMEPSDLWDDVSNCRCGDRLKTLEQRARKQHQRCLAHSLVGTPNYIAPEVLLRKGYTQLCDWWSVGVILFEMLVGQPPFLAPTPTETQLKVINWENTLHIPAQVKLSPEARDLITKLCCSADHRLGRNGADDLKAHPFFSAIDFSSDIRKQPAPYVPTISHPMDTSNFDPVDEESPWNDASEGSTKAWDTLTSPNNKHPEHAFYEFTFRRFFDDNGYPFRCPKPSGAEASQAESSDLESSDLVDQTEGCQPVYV
# T15 sequence (Q9BXA7 whole entry): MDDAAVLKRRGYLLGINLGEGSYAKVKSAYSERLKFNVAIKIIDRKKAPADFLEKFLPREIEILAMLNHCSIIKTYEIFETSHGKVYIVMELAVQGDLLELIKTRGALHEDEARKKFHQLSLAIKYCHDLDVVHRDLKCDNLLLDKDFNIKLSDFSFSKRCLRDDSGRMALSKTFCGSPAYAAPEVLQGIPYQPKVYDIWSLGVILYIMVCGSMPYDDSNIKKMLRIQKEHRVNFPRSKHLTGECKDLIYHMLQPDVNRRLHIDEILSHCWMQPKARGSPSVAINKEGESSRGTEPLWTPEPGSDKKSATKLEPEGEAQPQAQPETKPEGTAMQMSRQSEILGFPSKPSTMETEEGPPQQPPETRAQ
smiles,measurement,setting,value
"N[C@H]1CC[C@H](Nc2cc(-c3cccc(NCc4cccc(F)c4)n3)c(Cl)cn2)CC1 [i-CDK9, N2′-(trans-4-aminocyclohexyl)-5′-chloro-N6-(3-fluorobenzyl)-2,4′-bipyridine-2′,6-diamine]",% Retention on Solid Support,MET; 1 µM i-CDK9,94%
same,% Retention on Solid Support,MET; 10 µM i-CDK9,96%
same,remaining binding at 1 µM,FGFR4; 1 µM i-CDK9,98%
same,remaining binding at 10 µM,FGFR4; 10 µM i-CDK9,100%
same,remaining binding at 1 µM,[1],100%
same,remaining binding at 1 µM,BRSK2; 1 µM i-CDK9,93%
same,remaining binding at 10 µM,BRSK2; 10 µM i-CDK9,88%
same,remaining binding at 1 µM,RIOK1; 1 µM i-CDK9,100%
same,remaining binding at 10 µM,RIOK1; 10 µM i-CDK9,57%
same,remaining binding at 1 µM,PRKD3; 1 µM i-CDK9,73%
same,remaining binding at 10 µM,PRKD3; 10 µM i-CDK9,14%
same,remaining binding at 1 µM,ABL2; 1 µM i-CDK9,100%
same,remaining binding at 10 µM,ABL2; 10 µM i-CDK9,100%
same,remaining binding at 1 µM,BRAF; 1 µM i-CDK9,100%
same,remaining binding at 10 µM,BRAF; 10 µM i-CDK9,70%
same,remaining binding at 1 µM,INSR; 1 µM i-CDK9,100%
same,remaining binding at 10 µM,INSR; 10 µM i-CDK9,81%
same,% Retention on Solid Support,LATS2; 1 µM i-CDK9,100%
same,% Retention on Solid Support,LATS2; 10 µM i-CDK9,100%
same,remaining binding at 1 µM,TLK2; 1 µM i-CDK9,100%
same,remaining binding at 10 µM,TLK2; 10 µM i-CDK9,100%
same,remaining binding at 1 µM,IKK-beta; 1 µM i-CDK9,100%
same,remaining binding at 10 µM,IKK-beta; 10 µM i-CDK9,87%
same,remaining binding at 1 µM,[2]; 1 µM i-CDK9,100%
same,remaining binding at 10 µM,[2]; 10 µM i-CDK9,100%
same,remaining binding at 1 µM,ADCK3; 1 µM i-CDK9,100%
same,remaining binding at 10 µM,ADCK3; 10 µM i-CDK9,86%
same,remaining binding at 1 µM,MST2; 1 µM i-CDK9,72%
same,remaining binding at 10 µM,MST2; 10 µM i-CDK9,100%
same,remaining binding at 1 µM,TSSK1B; 1 µM i-CDK9,99%
same,remaining binding at 10 µM,TSSK1B; 10 µM i-CDK9,68%
same,remaining binding at 1 µM,KIT(A829P),100%
same,remaining binding at 1 µM,CDC2L2; 1 µM i-CDK9,100%
same,remaining binding at 10 µM,CDC2L2; 10 µM i-CDK9,33%
same,% binding to immobilized ligand,CDK13,100%
same,remaining binding at 1 µM,PAK4; 1 µM i-CDK9,100%
same,remaining binding at 10 µM,PAK4; 10 µM i-CDK9,100%
same,remaining binding at 1 µM,CLK3; 1 µM i-CDK9,88%
same,remaining binding at 10 µM,CLK3; 10 µM i-CDK9,25%
same,remaining binding at 1 µM,CDK5; 1 µM i-CDK9,100%
same,remaining binding at 10 µM,CDK5; 10 µM i-CDK9,81%
same,remaining binding at 1 µM,AURKC; 1 µM i-CDK9,100%
same,remaining binding at 10 µM,AURKC; 10 µM i-CDK9,71%
same,remaining binding at 1 µM,NEK7; 1 µM i-CDK9,100%
same,remaining binding at 10 µM,NEK7; 10 µM i-CDK9,100%
same,remaining binding at 1 µM,CDKL2; 1 µM i-CDK9,80%
same,remaining binding at 10 µM,CDKL2; 10 µM i-CDK9,14%
same,% Retention on Solid Support,[3]; 1 µM i-CDK9,100%
same,% Retention on Solid Support,[3]; 10 µM i-CDK9,86%
same,remaining binding at 1 µM,PIK3CA(E545K); 1 µM i-CDK9,100%
same,remaining binding at 10 µM,PIK3CA(E545K); 10 µM i-CDK9,95%
same,remaining binding at 1 µM,PHKG1; 1 µM i-CDK9,100%
same,remaining binding at 10 µM,PHKG1; 10 µM i-CDK9,100%
same,remaining binding at 1 µM,CAMK2G; 1 µM i-CDK9,100%
same,remaining binding at 10 µM,CAMK2G; 10 µM i-CDK9,100%
same,remaining binding at 1 µM,TTK; 1 µM i-CDK9,100%
same,remaining binding at 10 µM,TTK; 10 µM i-CDK9,100%
